Results: patent US20040029965A1, “Formulations for reducing or eliminating toxicity of enviromental hormones containing ursodeoxycholic acid” (priority 2000, published 2004)
Marks after values point to notes of the source that are not given here.

How the values were obtained:
Format in all cases: in vivo
C57B1/6J mice [1] = experiment: Effect of UDCA on death (death rate, death time) of mice by a single subcutaneous injection of TCDD
Description: (§1) Male C57B1/6J mice of 5 weeks old having the average weight of 18-22 g which had been bred in CRJ (Charles River in Japan) were purchased and used in this example as experimental animals. Those mice were acclimated under the constant breeding condition, i.e. the temperature of 24±1° C., the humidity of 60±10% and the light and darkness cycle of 12 hours, for one week and thereafter, utilized in the experiment.
The Experimental animals were supplied with Purina powdered feed (purchased from Hae Eun Trade) and supplied with water ad libitum. All the animals were weighed twice a week during experimentation.
(§2) 2,3,7,8-tetrachlorodibenzo-p-dioxin (TCDD) dissolved in toluene (purity of 95% or more as a result of gas chromatography analysis), manufactured by Chem. Services Inc. in USA, was volatilized with nitrogen to obtain powder. The obtained powder was dissolved in a mixed solvent containing acetone and corn oil with a volume ratio of 1:6. The resulting solution each containing 110, 27.5 and 6.9 μg/kg of TCDD was subcutaneously injected to mice at a volume of 5 ml per body weight. […] The mice were supplied with the feed from 10 days before (pre-administration) to 60 days after administration of TCDD (post-administration).
(§3) The results are expressed as Mean±Standard Deviation values. For statistical analysis of the body weight, feed and water uptake, biochemical findings, hematological findings and the weight of organ in an acute toxicity test, verification was performed by one way analysis of variance (ANOVA) in case of equal distribution. In case significance was recognized in ANOVA, the Student's t-test was performed in the levels of p<0.05 and p<0.01.

C57B1/6J mice [2] = experiment: Hematological changes in mice by a single subcutaneous injection of TCDD; parameters: NEU / LYM / PLT: unit not given here
Description: as §1, §2
(§4) Upon completion of the experiment for 60 days, the experimental animals were fasted for 24 hours and anesthetized with ether. Then, they were abdominally incised and blood was gathered from abdominal vena cava. They were sacrificed by the release of blood. Liver, kidneys, testes and epididymides were extracted and all the extracted organs were weighed. Only the testes were separately kept and observed under optical and electron microscopes. For biochemical finding test, serum was separated from blood with a centrifuge and the separated serum was analyzed with an automated blood biochemical analyzer, Dimension (Dupont, USA). Blood was put to another blood gathering bottle and then, analyzed with an automated blood cell analyzer, Celldyn (Abbott, USA).
as §3
For hematological findings, white blood cell (WBC), neutrophil (NEU), lymphocyte (LYM), monocyte (MONO), eosinophil (EOS), basophil (BASO) and red blood cell (RBC) counts, and hemoglobin concentration (HGB), hematocrit (HCT), mean cell volume (MCV), mean corpuscular hemoglobin (MCH), mean corpuscular hemoglobin concentration (MCHC), red blood cell distribution width (RDW) and platelet count (PLT) were measured and the results are as follows.

C57B1/6J mice [3] = experiment: Johnsen's score of the testis tissue (level of spermatogenesis); details: score 10 to 1
Description: as §2, §4
The extracted testes were fixed in 10% neutralized formalin buffer for 24 hours and washed with the flowing water. It was subsequently dehydrated with ethanol and cleared with xylene and then, embedded with paraffin. It was sectioned with microtome (microm is HM 440E) to a thickness of 2-3 μm and then, double stained with hematoxylin and eosin to observe under an optical microscope.
For evaluation of the level of spermatogenesis, Johnsen's score was determined from 10 to 1 based on the presence or absence of principal cells arranged according to maturation of spermatogenesis. The basis of Johnsen's score in testes was the following:
10: Perfect spermatogenesis having many sperms, organization of embryonic epithelial cells with a constant thickness, and opened lumen
9: Despite many sperms, significant separation of embryonic epithelial cells from the basement membrane and disruption thereof, or loss of lumen
8: Presence of 5 to less than 10 sperms in the section
7: Many sperm cells without sperms
6: 5 to less than 10 sperm cells without sperms
5: Several or many spermatocytes without sperms and sperm cells
4: Less than 5 spermatocytes without sperms and sperm cells
3: Presence of only spermatogonia as reproductive cells
2: Presence of only Sertoli cells without any reproductive cells
1: No cells in the section of seminiferous tubules

Clc1cc2c(cc1Cl)Oc1cc(Cl)c(Cl)cc1O2 [TCDD, 2,3,7,8-tetrachlorodibenzo-p-dioxin]
Death rate (C57B1/6J mice [1]; TCDD 6.9 μg/kg alone): 0% | No. of dead mice/No. of administered mice (C57B1/6J mice [1]; TCDD 6.9 μg/kg alone): 0/10 | Death rate (C57B1/6J mice [1]; TCDD 27.5 μg/kg alone): 30% | Death time (Mean ± SD) (C57B1/6J mice [1]; TCDD 27.5 μg/kg alone): 55 ± 5 days | No. of dead mice/No. of administered mice (C57B1/6J mice [1]; TCDD 27.5 μg/kg alone): 3/10 | Death time (Mean ± SD) (C57B1/6J mice [1]; TCDD 110.0 μg/kg alone): 35 ± 7 days | No. of dead mice/No. of administered mice (C57B1/6J mice [1]; TCDD 110.0 μg/kg alone): 10/10 | BASO (C57B1/6J mice [2]; TCDD 6.9 μg/kg alone): 0.21 ± 0.12 10^3 | EOS (C57B1/6J mice [2]; TCDD 6.9 μg/kg alone): 0.01 ± 0.01 10^3 | HCT (C57B1/6J mice [2]; TCDD 6.9 μg/kg alone): 43.12 ± 5.04% | HGB (C57B1/6J mice [2]; TCDD 6.9 μg/kg alone): 13.65 ± 1.34 g/dL | LYM (C57B1/6J mice [2]; TCDD 6.9 μg/kg alone): 4.27 ± 2.05 10^3 | MCH (C57B1/6J mice [2]; TCDD 6.9 μg/kg alone): 14.70 ± 0.41 pg | MCHC (C57B1/6J mice [2]; TCDD 6.9 μg/kg alone): 31.76 ± 0.70 g/dL | MCV (C57B1/6J mice [2]; TCDD 6.9 μg/kg alone): 46.33 ± 1.97 fL | MONO (C57B1/6J mice [2]; TCDD 6.9 μg/kg alone): 0.10 ± 0.07 10^3 | NEU (C57B1/6J mice [2]; TCDD 6.9 μg/kg alone): 0.40 ± 0.24 10^3 | PLT (C57B1/6J mice [2]; TCDD 6.9 μg/kg alone): 1140.88 ± 133.39 10^3 | RBC (C57B1/6J mice [2]; TCDD 6.9 μg/kg alone): 9.29 ± 0.85 10^6 | RDW (C57B1/6J mice [2]; TCDD 6.9 μg/kg alone): 20.38 ± 1.21% | WBC (C57B1/6J mice [2]; TCDD 6.9 μg/kg alone): 5.94 ± 1.85 10^3 | BASO (C57B1/6J mice [2]; TCDD 27.5 μg/kg alone): 0.17 ± 0.07 10^3 | EOS (C57B1/6J mice [2]; TCDD 27.5 μg/kg alone): 0.018 ± 0.028 10^3 | HCT (C57B1/6J mice [2]; TCDD 27.5 μg/kg alone): 39.12 ± 3.25 % | HGB (C57B1/6J mice [2]; TCDD 27.5 μg/kg alone): 12.90 ± 1.00 g/dL | LYM (C57B1/6J mice [2]; TCDD 27.5 μg/kg alone): 1.43 ± 0.60** 10^3 | MCH (C57B1/6J mice [2]; TCDD 27.5 μg/kg alone): 14.17 ± 0.40 pg | MCHC (C57B1/6J mice [2]; TCDD 27.5 μg/kg alone): 33.02 ± 0.86 g/dL | MCV (C57B1/6J mice [2]; TCDD 27.5 μg/kg alone): 42.97 ± 0.56 fL | MONO (C57B1/6J mice [2]; TCDD 27.5 μg/kg alone): 0.07 ± 0.04 10^3 | NEU (C57B1/6J mice [2]; TCDD 27.5 μg/kg alone): 2.58 ± 0.97** 10^3 | PLT (C57B1/6J mice [2]; TCDD 27.5 μg/kg alone): 1473.17 ± 110.35** 10^3 | RBC (C57B1/6J mice [2]; TCDD 27.5 μg/kg alone): 9.10 ± 0.71 10^6 | RDW (C57B1/6J mice [2]; TCDD 27.5 μg/kg alone): 20.97 ± 2.27% | WBC (C57B1/6J mice [2]; TCDD 27.5 μg/kg alone): 4.29 ± 1.05 10^3 | Johnsen's score of the testis tissue (C57B1/6J mice [3]; TCDD 6.9 μg/kg alone): 8.06 ± 0.09 | Johnsen's score of the testis tissue (C57B1/6J mice [3]; TCDD 27.5 μg/kg alone): 7.42 ± 0.11
